These results are taken from patent US20250248392A1, “LETHAL BAIT FOR PEST ANT CONTROL” (priority 2024, published 2025).

Common to all, as to format: in vivo
For experiment [1], the system named is Myrmica rubra fire ants. The experiment in a line: Exp. 17: choice between lethal and non-lethal liquid bait, survival of laboratory colonies. As to conditions: boric acid as lethal agent in baits; conclusion from Exps. 17-19 (M. rubra, F. oreas, C. modoc).
The test system of experiment [2] is Myrmica rubra fire ants. The experiment in a line: Laboratory consumption of liquid nutrient baits (Exps. 2, 4, 6, 8, 10, 12). As to the method:
(§1) Liquid nutrient solutions for experiments (see Table 1 for nutrient concentrations) were prepared by weighing dry ingredients (TR 204 scale; Denver Instrument Company, CO, USA), and then mixing them in distilled water. Aliquots (1 mL) of these solutions were pipetted into 1.5-mL Eppendorf tubes (Thermo Fisher Scientific, Waltham, MA 02451, U.S.A.) which were stored in a freezer (−4° C.) until needed.
(§2) Prior to experiments, Eppendorf tubes were removed from the freezer to thaw, and then vortexed to dissolve all solutes. Then, a 1-cm long piece of cotton dental wick (Richmond Dental & Medical, Charlotte, NC 28205, USA) was inserted into each tube, thus allowing ants to ingest the liquid without spillage. Also prior to bioassays, colonies were deprived of sugar water and food for 24 hours and 4 hours, respectively (the maximum time ants could endure without these foods before they attempted to chew their way out of containers). […]
(§3) Colonies of C. modoc (Exp. 1) and M. rubra (Exp. 2) were offered three choices: (1) 11 EAAs+10 non-EAAs (1.05% total w/v) in water; (2) 10 non-EAAs (0.5% w/v) in water; and (3) a water control. […] Data were analyzed using generalized linear models (GLM) and generalized linear mixed models (GLMM). For all models, the significance (p 0.05) of each predictor was assessed using a likelihood ratio test (LRT), and Tukey adjusted pairwise comparisons between means. […]

Experiment [3] relates to Camponotus modoc field colonies. The experiment in a line: Exp. 13: seasonal consumption of liquid food baits by field colonies. As to conditions: Exp. 13, Jun. 18 to Sep. 7, 2021. An excerpt:
(§4) Tubes were spaced around the entrance of C. modoc and M. rubra nests, with tube positions randomly assigned in each replicate.
(§5) For the C. modoc experiment (Exp. 13), Eppendorf tubes were affixed 5 cm apart to trees or logs housing a colony as shown, for example, in FIG. 6b. For the M. rubra experiment (Exp. 14), tubes were placed 5 cm apart around the entrance of subterranean nests. Evaporation control tubes were placed in Tupperware containers (15 cm×9 cm×10 cm) with a mesh-covered hole in the lid, and containers were set near ant nests. Replicates with M. rubra colonies (n=10; repeated on 7 dates) were run for 4 hours, and replicates with C. modoc colonies (n=13; repeated on 6 dates) were run for 24 hours. After replicates were terminated, tubes were capped, transported to the laboratory in a cooler, and weighed. All field studies were run on warm and sunny days with observable ant activity.
(§6) Colonies of C. modoc were located along the Mamquam forest service road (near Squamish, BC, Canada) and colonies of M. rubra were located at Inter River Park (District of North Vancouver, BC, Canada). […] Throughout the summer season, nutrient consumption by colonies was measured in circa 3-week intervals on six dates for C. modoc colonies from Jun. 18, 2021 to Sep. 7, 2021, and on seven dates for M. rubra colonies from May 21, 2021 to Sep. 13, 2021.

Experiment [4] has as its system Myrmica rubra field colonies. As to the kind of experiment: Exp. 14: seasonal consumption of liquid food baits by field colonies.
Description: as §4, §5, §6

In experiment [5] the test system is Lasius niger black garden ants. The experiment in a line: Exp. 15: consumption of liquid food baits by field colonies. As to conditions: Exp. 15: EAAs 5.55%, sucrose 5.55%, EAAs 1.0% + sucrose 4.55% w/v, water. An excerpt: In Experiments 15 and 16, the bait of EAAs and sucrose was effective for diverse ant taxa including black garden ants and thatching ants, as shown in FIG. 7. In Experiment 15 (n=10), colonies of Lasius niger black garden ants were located at the base of trees on the Burnaby campus of Simon Fraser University, and tubes were affixed next to each other on tree trunks alongside the ants' foraging trails. In Experiment 16 (n=10), colonies of Formica aserva thatching ants were located along the Mamquam forest service road (see above), and tubes were placed on top of tree stumps that contained an ant colony. For both experiments, evaporation control tubes were placed in Tupperware containers (15 cm×9 cm×10 cm) with a mesh-covered hole in the lid, and containers were set near ant colonies. Each colony was offered four Eppendorf tubes that contained: (1) EAAs (5.55% w/v); (2) sucrose (5.55% w/v), (3) EAAs (1.0% w/v)+sucrose (4.55% w/v); and (4) plain water (control).

In experiment [6] the test system is Camponotus modoc carpenter ants. As to the kind of experiment: Laboratory consumption of liquid nutrient baits (Exps. 1, 3, 5, 7, 9, 11). As to conditions: Exps. 5 and 7: single nutrients and ternary blend, unadjusted and adjusted concentrations. As to the method:
as §1, §2, §3

Turning to `OB(O)O` [boric acid], the “aversion to bait consumption” value with Myrmica rubra fire ants [1] was “not aversive to bait consumption”.

Take `OC[C@H]1O[C@@](CO)(O[C@H]2O[C@H](CO)[C@@H](O)[C@H](O)[C@H]2O)[C@@H](O)[C@@H]1O` [sucrose, D-sucrose]: the consumption by colonies entry in the experiment with Myrmica rubra fire ants [2] (Exp. 6: unadjusted concentrations (urea 2.5%, EAAs 0.55%, sucrose 2.5% w/v)) was “preferentially consumed”; in the experiment with Myrmica rubra fire ants [2] (Exp. 8: adjusted concentrations (5.55% w/v)), “preferentially consumed”. Also, the “change of consumption over the season” value in experiment [3] was “decreased over time”; in experiment [4] (Exp. 14, May 21 to Sep. 13, 2021), “declined over time”. Moreover, the “consumption by field colonies” value in experiment [4] (Exp. 14: EAA 5.55%, sucrose 5.55%, EAA 1.0% + sucrose 4.55% w/v, water, seven dates, 4 hours) was “generally consumed more sucrose”; in experiment [5], “equally consumed”.

For `NC(N)=O` [urea], in experiment [6], the consumption by colonies entry is listed as “preferentially consumed”.
